Drawing on patent US20130345199A1, “1-[M-CARBOXAMIDO(HETERO)ARYL-METHYL]-PIPERIDINE-4-CARBOXAMIDE DERIVATIVES” (Actelion Pharmaceuticals Ltd., priority 2012, published 2013), this text covers EC50 for 53 molecules.

Structures are written as SMILES. pEC50: −log10 of the molar value.

The target in this assay is T1, CXCR7 (Homo sapiens, UniProt P25106).
T1 construct: host or cells: CHO-K1 (PathHunter CXCR7 b-arrestin cell line, stably transfected)
T1 sequence (P25106 whole entry): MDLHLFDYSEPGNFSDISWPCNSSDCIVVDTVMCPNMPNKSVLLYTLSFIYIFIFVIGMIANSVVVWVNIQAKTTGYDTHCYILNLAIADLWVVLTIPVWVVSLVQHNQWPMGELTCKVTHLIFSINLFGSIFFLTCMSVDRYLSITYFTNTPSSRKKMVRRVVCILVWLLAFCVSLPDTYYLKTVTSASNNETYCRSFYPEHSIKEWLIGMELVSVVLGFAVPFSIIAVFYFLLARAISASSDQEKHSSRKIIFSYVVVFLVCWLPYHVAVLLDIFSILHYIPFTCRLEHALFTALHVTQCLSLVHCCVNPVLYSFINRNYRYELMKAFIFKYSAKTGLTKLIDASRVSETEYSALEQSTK
As to the kind of experiment: PathHunter CHO-K1 CXCR7 b-arrestin assay (agonistic activity). Format: cell-based. The settings on record: PathHunter CHO-K1 CXCR7 b-arrestin cell line, 90 minutes at 37° C. The method, then: The […] receptor and CXCR7 agonistic activities of the compounds of formula (I) are determined in accordance with the following experimental method.
The assay is using the PathHunter™ CHO-K1 CXCR7 b-arrestin cell line from DiscoverX. The system is based on the Enzyme Fragment Complementation Technology. Two complementing fragments of the b-galactosidase enzyme are expressed within stably transfected cells. The larger portion of b-gal, termed EA for Enzyme Acceptor, is fused to the C-terminus of b-arrestin 2. The smaller fragment, termed ProLink™ tag, is fused to CXCR7 at the C-terminus. Upon activation, b-arrestin is recruited which forces the interaction of ProLink and EA, allowing complementation of the two fragments of b-gal and the formation of a functional enzyme which is capable of hydrolysing the substrate and generating a chemiluminescent signal.
CHO-K1 CXCR7 b-arrestin cells are detached from culture dishes with a cell dissociation buffer (Invitrogen, #13151-014) and collected in growing medium (F12HAMS 90% (v/v)/FCS 10% (v/v), Penicilin/streptomycin 1% (v/v)). 5000 cells per well (in 20 μl) are seeded in a 384 well plate (white-walled, clear bottom; BD Falcon #353274). The plate is incubated at 37° C./5% CO2 for 24 hours. Medium is then replaced by […] (Invitrogen #31985) for 3 to 4 hours. Test compounds are dissolved at 10 mM in DMSO and serially diluted in DMSO to 200× of the final concentration for dose response curves. Compounds are then diluted 1:33.3 in HBSS1X. 5 μl/well of HBSS1X/20 mM HEPES/0.2% BSA are added to the assay plate followed by addition of 5 μl/well of diluted compounds. CXCL12 (Peprotech #300-28A) may be used as a reference agonist. The plate is incubated for 90 minutes at 37° C. 12 μl of detection reagent (Path Hunter Detection Kit, DiscoveRx, #93-0001) is transferred to the assay plate and to the plate is incubated for 1 hour at room temperature. Luminescent signal is read in a microplate reader (FLUOstar Optima, bmg). The calculated EC50 values may fluctuate depending on the daily cellular assay performance. Fluctuations of this kind are known to those skilled in the art.
As a reminder, the pEC50 is the EC50 on a negative log10 scale, so that one unit is a factor of ten. A lower pEC50 goes with a high EC50. `CCC(CC)NC(=O)C1CCN(Cc2cccc(NC(=O)c3cncc(C)c3)c2)CC1` [Example 2.040] gave a pEC50 of 8.10.
Consider `Cc1cncc(C(=O)Nc2cccc(CN3CCC(C(=O)NC4CCC4)CC3)c2)c1` [Example 2.041], for which the negative logarithm of the EC50 (pEC50) was 7.89.
Regarding `Cc1cncc(C(=O)Nc2cccc(CN3CCC(C(=O)NC4CCCC4)CC3)c2)c1` [Example 2.042], the pEC50 is 8.30.
Consider `Cc1cncc(C(=O)Nc2cccc(CN3CCC(C(=O)NCC4CC4)CC3)c2)c1` [Example 2.043], for which the pEC50 was 7.70.
The result for `Cc1cncc(C(=O)Nc2cccc(CN3CCC(C(=O)NC4CCC(F)(F)CC4)CC3)c2)c1` [Example 2.044] reads 7.57; that for `Cc1cncc(C(=O)Nc2cccc(CN3CCC(C(=O)NC4(C#N)CC4)CC3)c2)c1` [Example 2.045], 6.40.
The result for `Cc1cncc(C(=O)Nc2cccc(CN3CCC(C(=O)N4CCCCC4)CC3)c2)c1` [Example 2.046] reads 8.22.
As to `Cc1cncc(C(=O)Nc2cccc(CN3CCC(C(=O)N4CCCC4)CC3)c2)c1` [Example 2.047], the pEC50 is 7.17.
The result for `Cc1cncc(C(=O)Nc2cccc(CN3CCC(C(=O)N4CCCCCC4)CC3)c2)c1` [Example 2.048] reads 7.72; that for `Cc1cncc(C(=O)Nc2cccc(CN3CCC(C(=O)N4CCC(F)(F)CC4)CC3)c2)c1` [Example 2.049], 6.52; that for `Cc1cncc(C(=O)Nc2cccc(CN3CCC(C(=O)N4C(C)CCC4C)CC3)c2)c1` (centres unmarked) [Example 2.051], 7.02.
`Cc1cncc(C(=O)Nc2cccc(CN3CCC(C(=O)N4CC[C@@H](F)C4)CC3)c2)c1` [Example 2.052] showed a negative-log EC50 (pEC50) of 6.92.
`Cc1cncc(C(=O)Nc2cccc(CN3CCC(C(=O)N4CC[C@H](F)C4)CC3)c2)c1` [Example 2.053] showed a pEC50 of 6.71.
The result for `Cc1cncc(C(=O)Nc2cccc(CN3CCC(C(=O)N4CCC(F)(F)C4)CC3)c2)c1` [Example 2.054] reads 6.96; that for `Cc1cncc(C(=O)Nc2cccc(CN3CCC(C(=O)N(C)C)CC3)c2)c1` [Example 2.055], 7.22.
The value for `CCCN(C)C(=O)C1CCN(Cc2cccc(NC(=O)c3cncc(C)c3)c2)CC1` [Example 2.056] was 8.22; that for `Cc1cncc(C(=O)Nc2cccc(CN3CCC(C(=O)N(C)CC(C)C)CC3)c2)c1` [Example 2.057] was 8.10; that for `COCCN(C)C(=O)C1CCN(Cc2cccc(NC(=O)c3cncc(C)c3)c2)CC1` [Example 2.058] was 6.65.
Molecule `CCC(C)(C)NC(=O)C1CCN(Cc2cccc(NC(=O)c3cncc(C)c3)c2)CC1` [Example 2.059] had a pEC50 of 8.52.
The result for `Cc1cncc(C(=O)Nc2cccc(CN3CCC(C(=O)N4CCCC4(C)C)CC3)c2)c1` [Example 2.060] reads 8.00; that for `Cc1cncc(C(=O)Nc2cccc(CN3CCC(C(=O)N4CCC(C)(C)C4)CC3)c2)c1` [Example 2.061], 7.19.
In the case of `Cc1cncc(C(=O)Nc2cccc(CN3CCC(C(=O)NC4CCCC4)C3)c2)c1` (centres unmarked) [Example 2.062], the pEC50 was 7.55.
The value for `Cc1cncc(C(=O)Nc2cccc(CN3CCC(C(=O)NC4CCCCC4)C3)c2)c1` (centres unmarked) [Example 2.063] was 7.04; that for `CCC(CO)NC(=O)C1CCN(Cc2cccc(NC(=O)c3cccc(C(F)(F)F)n3)c2)CC1` (centres unmarked) [Example 2.065] was 7.59; that for `O=C(Nc1cccc(CN2CCC(C(=O)N[C@H](CO)C3CCCCC3)CC2)c1)c1cccc(C(F)(F)F)n1` [Example 2.066] was 6.37.
The result for `CC(C)(C)[C@@H](CO)NC(=O)C1CCN(Cc2cccc(NC(=O)c3cccc(C(F)(F)F)n3)c2)CC1` [Example 2.067] reads 6.39.
`CNC(=O)C1CCN(Cc2cccc(NC(=O)c3cccc(C(F)(F)F)n3)c2)CC1` [Example 2.068] gave a pEC50 of 8.40.
`CCNC(=O)C1CCN(Cc2cccc(NC(=O)c3cccc(C(F)(F)F)n3)c2)CC1` [Example 2.069]: the pEC50 was 8.40.
`CC(C)(C)CNC(=O)C1CCN(Cc2cccc(NC(=O)c3cccc(C(F)(F)F)n3)c2)CC1` [Example 2.070]: the pEC50 was 8.22.
The molecule `CC(C)CNC(=O)C1CCN(Cc2cccc(NC(=O)c3cccc(C(F)(F)F)n3)c2)CC1` [Example 2.071] showed a pEC50 of 8.70.
The result for `CNC(=O)C1CCN(Cc2cccc(NC(=O)c3cccs3)c2)CC1` [Example 2.072] reads 6.73; that for `CN(C)C(=O)C1CCN(Cc2cccc(NC(=O)c3cccs3)c2)CC1` [Example 2.073], 6.81; that for `CCN(CC)C(=O)C1CCN(Cc2cccc(NC(=O)c3cccs3)c2)CC1` [Example 2.074], 7.15.
`O=C(Nc1cccc(CN2CCC(C(=O)NC3CCCCC3)CC2)c1)c1cccs1` [Example 2.075] gave a pEC50 of 8.15.
The molecule `O=C(Nc1cccc(CN2CCC(C(=O)NCc3ccccc3)CC2)c1)c1cccs1` [Example 2.076] showed a pEC50 of 6.11.
In the case of `CN(C(=O)C1CCN(Cc2cccc(NC(=O)c3cccs3)c2)CC1)C1CCCCC1` [Example 2.077], the pEC50 was 7.06.
`CCCCCCNC(=O)C1CCN(Cc2cccc(NC(=O)c3cccc(C(F)(F)F)n3)c2)CC1` [Example 2.078]: the negative-log EC50 (pEC50) was 6.59.
As to `CCCCCCN(C)C(=O)C1CCN(Cc2cccc(NC(=O)c3cccc(C(F)(F)F)n3)c2)CC1` [Example 2.079], the negative logarithm of the EC50 (pEC50) was 6.65.
The value for `CC(C)CCNC(=O)C1CCN(Cc2cccc(NC(=O)c3cccc(C(F)(F)F)n3)c2)CC1` [Example 2.081] was 8.30.
Take `CC(C)(C)CCNC(=O)C1CCN(Cc2cccc(NC(=O)c3cccc(C(F)(F)F)n3)c2)CC1` [Example 2.082]: the negative logarithm of the EC50 (pEC50) was 6.92.
For `CC1CCC(NC(=O)C2CCN(Cc3cccc(NC(=O)c4cccc(C(F)(F)F)n4)c3)CC2)CC1` (centres unmarked) [Example 2.083], the negative logarithm of the EC50 (pEC50) was 8.52.
With `CC(C)(CO)NC(=O)C1CCN(Cc2cccc(NC(=O)c3cccc(C(F)(F)F)n3)c2)CC1` [Example 2.091], the pEC50 is 8.22.
The result for `COCC(C)NC(=O)C1CCN(Cc2cccc(NC(=O)c3cccc(C(F)(F)F)n3)c2)CC1` (centres unmarked) [Example 2.092] reads 8.52.
On to `COC(C)CNC(=O)C1CCN(Cc2cccc(NC(=O)c3cccc(C(F)(F)F)n3)c2)CC1` (centres unmarked) [Example 2.093], for which the pEC50 was 8.22.
In turn, `CCCNC(=O)C1CCN(Cc2cccc(NC(=O)c3cccc(C(F)(F)F)n3)c2)CC1` [Example 2.094] showed a pEC50 of 9.00.
In turn, `CCCCNC(=O)C1CCN(Cc2cccc(NC(=O)c3cccc(C(F)(F)F)n3)c2)CC1` [Example 2.095] showed a pEC50 of 8.70.
`O=C(Nc1cc(CN2CCC(C(=O)NC3CCCCC3)CC2)ccn1)c1ccc(F)cc1` [Example 3.001, 1-[2-(4-Fluoro-benzoylamino)-pyridin-4-ylmethyl]-piperidine-4-carboxylic acid cyclohexylamide] gave a pEC50 of 7.62.
As for `O=C(Nc1cc(CN2CCC(C(=O)NC3CCCCC3)CC2)ccn1)c1ccc(Cl)cc1` [Example 3.002, 1-[2-(4-Chloro-benzoylamino)-pyridin-4-ylmethyl]-piperidine-4-carboxylic acid cyclohexylamide], the negative-log EC50 (pEC50) was 7.24.
Molecule `O=C(Nc1cccc(CN2CCC(C(=O)NC3CCCCC3)CC2)n1)c1ccc(F)cc1` [Example 3.003, 1-[6-(4-Fluoro-benzoylamino)-pyridin-2-ylmethyl]-piperidine-4-carboxylic acid cyclohexylamide] gave a negative logarithm of the EC50 (pEC50) of 6.78.
The molecule `O=C(Nc1cncc(CN2CCC(C(=O)NC3CCCCC3)CC2)c1)c1ccc(Cl)cc1` [Example 3.004, 1-[5-(4-Chloro-benzoylamino)-pyridin-3-ylmethyl]-piperidine-4-carboxylic acid cyclohexylamide] showed a pEC50 of 7.44.
`O=C(Nc1cncc(CN2CCC(C(=O)NC3CCCCC3)CC2)c1)c1ccc(F)cc1` [Example 3.005, 1-[5-(4-Fluoro-benzoylamino)-pyridin-3-ylmethyl]-piperidine-4-carboxylic acid cyclohexylamide]: the pEC50 is 7.24.
`O=C(Nc1ccnc(CN2CCC(C(=O)NC3CCCCC3)CC2)c1)c1ccc(F)cc1` [Example 3.006, 1-[4-(4-Fluoro-benzoylamino)-pyridin-2-ylmethyl]-piperidine-4-carboxylic acid cyclohexylamide]: the negative logarithm of the EC50 (pEC50) was 7.25.
In turn, `O=C(Nc1ccnc(CN2CCC(C(=O)NC3CCCCC3)CC2)c1)c1ccc(Cl)cc1` [Example 3.007, 1-[4-(4-Chloro-benzoylamino)-pyridin-2-ylmethyl]-piperidine-4-carboxylic acid cyclohexylamide] showed a pEC50 of 7.55.
